Measurements reported in US20040048262A1, “Methods for determining the bilogical effects of compounds on gene expression” (priority 2003, published 2004).

Test system: PC12 cells
Test: Transcription factor DNA-binding activity profile, nuclear extracts of NGF-treated PC12 cells, random 16-mer library (FIG. 2)
Type: cell-based
Settings: 200 ng/ml NGF-beta, 5 hr, vs untreated
Source text: FIG. 2 is a bar graph showing the effects of nerve growth factor (NGF) treatment on transcription factor DNA-binding activities in PC12 cells. The identity of the specific transcription factors whose binding activity is being detected are listed on the X-axis. The level of DNA binding activity for each individual transcription factor is depicted as a percentage of the total number of DNA fragments sequenced from the “bound” fraction of the DNA library used in the binding reactions and containing the cognate site for that particular protein (shown as a numerical value on the Y-axis). The level of binding activities for all the proteins detected as a result of their cognate binding sites being found in the “bound” fraction of the DNA library constitutes the transcription factor activity profiles for PC12 cells and PC12 cells following NGF treatment. The profiles generated provide a useful indicator of the mechanism of action of the compound being used for the cell treatrment. For example, if the mechanism of action of NGF was to increase the expression of a particular cell surface receptor, then one would expect to see altered levels of binding activities for those transcription factors known to regulate the expression of the gene that encodes that particular receptor in the NGF-treated sample. If one did indeed see altered binding activity levels of factors known to regulate a particular receptor gene or set of genes, then one could immediately assay for those changes in gene expression as a result of inference from the transcription factor activity profile.
In a specific example, PC12 cells were grown in high glucose DMEM containing 10% horse serum and 5% fetal calf serum. For differentiation, cells were transferred to serum-free medium containing N-2 Supplement (Life Technologies) and 200 ng/ml Nerve Growth Factor-beta (Sigma). Cells were harvested after 5 hr and nuclear extracts were prepared as described above. A positive response of the PC12 cells to NGF was monitored by EMSA of AP-1 activity.
In this example, nuclear extracts were incubated with a random 16-mer library and the DNA present in specific protein/DNA complexes was isolated and sequenced. Known transcription factor binding sites present in the DNA sequences were counted as described in Example 1 and the data generated are presented in FIG. 2 in the same mainer as in Example 2. Thus, the bars indicate the percentage of DNA fragments containing selected cis sites that were isolated in binding reactions containing nuclear extracts from either untreated (white bars) or NGF-treated (black bars) PC12 cells. It can be seen that NGF-treatment leads to an increase in binding activity for AP 1, ATF, TCF11 (among others), while for example E2F and RFX1 activities are reduced after NGF treatment.

## NGF: Nerve Growth Factor-beta (Sigma)
  change in E2F activity after NGF treatment: reduced
  change in RFX1 activity after NGF treatment: reduced
  change in binding activity for AP 1 after NGF treatment: increase
  change in binding activity for ATF after NGF treatment: increase
  change in binding activity for TCF11 after NGF treatment: increase
